Test results reported in US9718810B2, “Solid state forms of a quinazoline derivative and its use as a BRAF inhibitor” (Ignyta, Inc., priority 2013, dated 2017).
Like-named read-outs stand apart in the source and are kept apart here.

What was measured:
[1] = Kinetic solubility measurement in pure water; assay type: physicochemical; details: for pH: pH of the aqueous solubility sample; for Aqueous solubility: pure water, ambient room temperature, 20 minutes, expressed as free base
Protocol: Typically 1-5 mg of samples were diluted to 10 mL with sample solvent (1:1 (v:v) Mobile phase A:Mobile phase B) and the assay concentrations were determined from an average of duplicate injections using the following HPLC method. The purity and impurity analyses are done using conventional HPLC.
The free base and the salts listed in the table below were added in excess (saturation) to water in a 2.0 mL glass vial. The samples were put on an end-to-end rotator (50 rpm) at ambient room temperature up to 20 minutes. After 20 minutes, a sampling was taken for HPLC analysis.

[2] = Gravimetric vapor sorption (GVS); assay type: physicochemical; details: for hygroscopicity: adsorption and desorption curves overlap; for XRPD after GVS analysis: form change after GVS cycles
Protocol: GVS experiments have been carried out using the DVS-HT instrument (Surface Measurement Systems, London, UK). This instrument measures the uptake and loss of vapor gravimetrically using a recording ultra-microbalance with a mass resolution of ±0.1 μg. The vapor partial pressure (±1.0%) around the sample is controlled by mixing saturated and dry carrier gas streams using electronic mass flow controllers. The desired temperature is maintained at ±0.1° C. The samples (1-10 mg) were placed into the DVSHT and DVS-1 instruments at the desired temperature. The sample was loaded and unloaded at 40% RH and 25° C. (typical room conditions). A moisture sorption isotherm was performed as outlined below (2 scans giving 1 complete cycle). The software uses a least squares minimization procedure together with a model of the mass relaxation, to predict an asymptotic value. The measured mass equilibration value must be within 2% of that predicted by the software before the next % RH value is selected. The minimum equilibration time was set to 1 hour and the maximum to 4 hours.

[3] = Solid-state stress stability at 40° C./75% RH; assay type: physicochemical; details: for Area Purity / HPLC Assay / XRPD: 40° C./75% RH; for solid state stability: 40° C./75% relative humidity without desiccant
Protocol: Typically 1-5 mg of samples were diluted to 10 mL with sample solvent (1:1 (v:v) Mobile phase A:Mobile phase B) and the assay concentrations were determined from an average of duplicate injections using the following HPLC method. The purity and impurity analyses are done using conventional HPLC. Samples of Compound I free base and its salts (approximately 10 mg each) were stored at 40° C./75% RH in open glass vials (4 cm^3) over four weeks without desiccant. Stress stability studies were performed to get a timely impression of the influence of temperature and humidity on Form stability.

[4] = molecular target: T1, BRAF V600E (Homo sapiens, UniProt P15056, V600E); assay: BRAF V600E inhibition in isolated systems; assay type: biochemical; details: in vitro
T1 sequence (P15056 whole entry V600E): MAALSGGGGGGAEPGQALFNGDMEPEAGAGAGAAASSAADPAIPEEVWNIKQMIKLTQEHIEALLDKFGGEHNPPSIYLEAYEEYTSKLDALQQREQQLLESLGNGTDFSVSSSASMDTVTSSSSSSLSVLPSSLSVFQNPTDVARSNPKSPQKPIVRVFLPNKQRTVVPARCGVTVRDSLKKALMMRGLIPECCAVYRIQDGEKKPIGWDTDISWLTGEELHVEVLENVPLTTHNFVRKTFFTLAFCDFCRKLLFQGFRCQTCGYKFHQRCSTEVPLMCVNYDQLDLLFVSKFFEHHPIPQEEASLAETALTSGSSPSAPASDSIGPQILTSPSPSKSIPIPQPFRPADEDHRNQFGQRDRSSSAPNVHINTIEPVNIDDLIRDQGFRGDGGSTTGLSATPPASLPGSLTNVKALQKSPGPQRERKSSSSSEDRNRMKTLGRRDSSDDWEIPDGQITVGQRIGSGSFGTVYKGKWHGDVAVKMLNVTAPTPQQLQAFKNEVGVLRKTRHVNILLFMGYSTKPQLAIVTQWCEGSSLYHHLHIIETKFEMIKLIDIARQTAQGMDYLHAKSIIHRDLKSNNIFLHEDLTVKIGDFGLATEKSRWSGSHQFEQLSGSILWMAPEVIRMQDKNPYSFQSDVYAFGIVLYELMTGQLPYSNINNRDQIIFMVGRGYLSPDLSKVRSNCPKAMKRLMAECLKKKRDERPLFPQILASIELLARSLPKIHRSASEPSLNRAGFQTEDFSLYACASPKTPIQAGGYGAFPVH

[5] = molecular target: T1, BRAF V600E; assay: BRAF V600E inhibition in intact cells; assay type: cell-based; details: in vitro
[6] = Solubility of Form A0 in organic solvents at the boiling point; assay type: physicochemical; details: for solubility: organic solvent or mixture, thermodynamic from solid, read-out: Solubility Estimate at The Boiling Point
Protocol: The following procedure was used to assess the solubility of the anhydrous free base of Compound I (Form A0) in a range of nine organic solvents listed in Table 3. Using 1.8 mL HPLC vials, approximately 10 mg of Form A0 was stirred at the boiling point in 200 μL of nine different solvents. […] The additions were stopped when the solid dissolved or when 1000 μL had been dispensed. […] Methyl t-butyl ether was chosen as an anti-solvent (<10 mg/mL).

[7] = Methyl-t-butyl Ether, 55.2 ° C.

SMILES: COc1cc2ncnc(Oc3cccc(NC(=O)Nc4cc(C(C)(C)C(F)(F)F)on4)c3)c2cc1OC [Bromide A1]
- pH [1]: 6.6
- Aqueous solubility [1]: 0.1 mg/mL
- amount of moisture adsorbed at 75% RH ([2]; 25° C.): less than 0.7%
- GVS: Percent increase in mass at 90% RH ([2]; 25° C.): 1.0%
- GVS: Percent increase in mass at 90% RH ([2]; 25° C., listed as Bromide Form A1): approximately 1%
- hygroscopicity [2]: not hygroscopic
- XRPD after GVS analysis [2]: No change
- XRPD after GVS analysis ([2]; listed as Bromide Form A1): compares nicely to the pattern of the material before GVS

SMILES: COc1cc2ncnc(Oc3cccc(NC(=O)Nc4cc(C(C)(C)C(F)(F)F)on4)c3)c2cc1OC.Cl [Chloride A1]
- pH [1]: 7.3
- dissolution in pure water, ranking of salts ([1]; pure water (pH=7)): best salt for dissolution in pure water
- Aqueous solubility [1]: 0.56 mg/mL
- Area Purity ([3]; 0 days): 99.5%
- HPLC Assay ([3]; 0 days): 99.9%
- XRPD ([3]; 0 days): Form A1
- Area Purity ([3]; 7 days): 98.7%
- HPLC Assay ([3]; 7 days): 98.3%
- XRPD ([3]; 7 days): Form A1
- Area Purity ([3]; 14 days): 97.6%
- HPLC Assay ([3]; 14 days): 98.7%
- XRPD ([3]; 14 days): Form A1
- Area Purity ([3]; 28 days): 96.4%
- HPLC Assay ([3]; 28 days): 100.4%
- XRPD ([3]; 28 days): Form A1
- solid state stability ([3]; 28 days): stable for 28 days
- GVS: Percent increase in mass at 90% RH ([2]; 25° C.): 1.7%
- XRPD after GVS analysis [2]: No change
- XRPD after GVS analysis ([2]; listed as Chloride Form A1): No form change occurred

SMILES: COc1cc2ncnc(Oc3cccc(NC(=O)Nc4cc(C(C)(C)C(F)(F)F)on4)c3)c2cc1OC [Compound I, 1-[3-(6,7-dimethoxy-quinazolin-4-yloxy)-phenyl]-3-[5-(2,2,2-trifluoro-1,1-dimethyl-ethyl)-isoxazol-3-yl]-urea]
- inhibits BRAF V600E [4]: low nanomolar concentrations
- inhibits BRAF V600E [5]: low nanomolar concentrations

SMILES: COc1cc2ncnc(Oc3cccc(NC(=O)Nc4cc(C(C)(C)C(F)(F)F)on4)c3)c2cc1OC [Form A0]
- Solubility Estimate at The Boiling Point [6, 7]: <10 mg/mL
- solubility ([6]; Acetone, 56.5 ° C.): > 50 mg/mL
- solubility ([6]; Acetonitrile, 82.0 ° C.): < 20 mg/mL
- solubility ([6]; Chloroform, 61.2 ° C.): > 50 mg/mL
- solubility ([6]; Dichloromethane, 40.0 ° C.): > 20 mg/mL
- solubility ([6]; Ethyl Acetate, 77.1 ° C.): < 30 mg/mL
- solubility ([6]; Methanol, 64.7 ° C.): < 20 mg/mL
- solubility [6, 7]: < 10 mg/mL
- solubility ([6]; Tetrahydrofuran, 66.0 ° C.): > 50 mg/mL
- solubility ([6]; Toluene, 110.6 ° C.): < 30 mg/mL
- pH [1]: 7.4
- Aqueous solubility ([1]; listed as Free base A0): <0.01 mg/mL
- Area Purity ([3]; 0 days): 98.3%
- HPLC Assay ([3]; 0 days): 100.0%
- XRPD ([3]; 0 days): Form A0
- Area Purity ([3]; 6 days): 98.5%
- HPLC Assay ([3]; 6 days): 102.3%
- XRPD ([3]; 6 days): Form A0
- Area Purity ([3]; 14 days): 98.5%
- HPLC Assay ([3]; 14 days): 100.5%
- XRPD ([3]; 14 days): Form A0
- Area Purity ([3]; 28 days): 98.2%
- HPLC Assay ([3]; 28 days): 102.4%
- XRPD ([3]; 28 days): Form A0
- solid state stability ([3]; 28 days): stable for 28 days
- GVS: Percent increase in mass at 90% RH ([2]; 25° C.): 1.3%
- XRPD after GVS analysis [2]: compares nicely to the pattern of the material before GVS
- XRPD after GVS analysis ([2]; listed as A0): No change
- moisture uptake ([2]; from 40 to about 90% RH): less than 1.3 % (w/w)

SMILES: COc1cc2ncnc(Oc3cccc(NC(=O)Nc4cc(C(C)(C)C(F)(F)F)on4)c3)c2cc1OC.O=C(O)CC(=O)O [Malonate A1]
- pH [1]: 6.6
- Aqueous solubility [1]: 0.07 mg/mL
- total uptake of water ([2]; RH range of 0-90%, 25° C.): < 4%
- XRPD after GVS analysis [2]: No form change occurred

SMILES: COc1cc2ncnc(Oc3cccc(NC(=O)Nc4cc(C(C)(C)C(F)(F)F)on4)c3)c2cc1OC.O=P(O)(O)O [Phosphate A1]
- pH [1]: 6.8
- Aqueous solubility [1]: 0.09 mg/mL
- amount of moisture adsorbed at 75% RH ([2]; 25° C.): less than 1.8%
- GVS: Percent increase in mass at 90% RH ([2]; 25° C.): 2.7%
- GVS: Percent increase in mass at 90% RH ([2]; 25° C., listed as phosphate Form A1): approximately 2.7%
- hygroscopicity [2]: not hygroscopic
- XRPD after GVS analysis [2]: No change
- XRPD after GVS analysis ([2]; listed as phosphate Form A1): compares nicely to the pattern of the material before GVS
